Patent publication USRE47302E1 (ONYX THERAPEUTICS INC., priority 2013, dated 2019)
≈ marks a conversion by molar mass, not a printed value. Read-outs that look alike come from different tables or passages of the source.

Columns and labels:
[1] = target: T1, immunoproteasome subunit LMP7 (Homo sapiens, UniProt P28062); experiment: Proteasome active-site ELISA (ProCISE), LMP7, MOLT-4 lysate; assay type: biochemical
T1 construct: Lysate from the human acute lymphoblastic leukemia cell line, MOLT-4; endogenous in cells; host or cells: MOLT-4
Method: (§1) Test compounds were serially diluted in DMSO at 100× concentration, then diluted to 10× in aqueous hypotonic lysis buffer. Lysate from the human acute lymphoblastic leukemia cell line, MOLT-4, was treated for 1 hour at 25° C. with compound at a final 1× concentration. […] Following, lysate was denatured in guanidine hydrochloride, and subunits bound to probe were isolated with streptavidin-conjugated sepharose beads. Individual subunits (e.g., β5, LMP7, LMP2, MECL-1) were probed with subunit-specific primary antibodies, followed by HRP-conjugated secondary antibodies. A chemiluminescent substrate was used to generate signal associated with HRP binding, which was detected on a plate reader. Luminescent signal was normalized to protein content, then, percent activity calculated relative to DMSO-treated controls to generate IC50 curves.

[2] = target: T2, proteasome subunit β5 (beta5) (Homo sapiens, UniProt P28074); experiment: Proteasome active-site ELISA (ProCISE), beta5, MOLT-4 lysate; assay type: biochemical
T2 construct: Lysate from the human acute lymphoblastic leukemia cell line, MOLT-4; endogenous in cells; host or cells: MOLT-4
Method: as §1

Solubility pH 7 = settings: for solubility: pH 7, aqueous buffer
[3] = read-out: ProCISE LMP7 MOLT4 lysate Hu 1 h CONT: IC50, 1 h continuous treatment, 25° C.
[4] = read-out: ProCISE beta5 MOLT4 lysate Hu 1 h CONT: IC50, MOLT4 lysate, human, 1 h continuous treatment, 25° C.
[5] = MOLT4 lysate, 1 h continuous treatment, 25° C.
[6] = MOLT4 lysate, human, 1 h continuous treatment, 25° C.

| IC50 [1, 3] | IC50 [2, 4] | solubility (Solubility pH 7) | IC50 [1, 5] | IC50 [2, 6] | Solubility pH 7 (μg/mL) (Solubility pH 7; pH 7) | Structure (SMILES) | IC50 [2] |
| --- | --- | --- | --- | --- | --- | --- | --- |
| 24.7 nM | 678 nM | 4250 µg/mL (≈ 7.13 mM) |  |  |  | COc1ccc(C[C@H](NC(=O)[C@@H](C)NC(=O)[C@H]2CC[C@H](O)CC2)C(=O)N[C@@H](Cc2ccc(O)cc2)C(=O)[C@@]2(C)CO2)cc1 [Compound C-1191] |  |
|  |  | 2140 µg/mL (≈ 3.67 mM) | 209 nM | 1810 nM |  | C[C@H](NC(=O)CN1CCOCC1)C(=O)N[C@@H](Cc1ccc2[nH]ncc2c1)C(=O)N[C@@H](CC1CCCC1)C(=O)[C@@]1(C)CO1 [Compound C-1070, (S)-N-((S)-3-cyclopentyl-1-((R)-2-methyloxiran-2-yl)-1-oxopropan-2-yl)-3-(1H-indazol-5-yl)-2-((S)-2-(2-morpholinoacetamido)propanamido)propanamide] |  |
|  |  | 6260 µg/mL (≈ 10.7 mM) | 43.8 nM | 407 nM |  | COc1ccc(C[C@H](NC(=O)[C@H](C)NC(=O)CN2CCC(O)CC2)C(=O)N[C@@H](CC2=CCCC2)C(=O)[C@@]2(C)CO2)cc1 [Compound C-1118, (S)-N-((S)-3-(Cyclopent-1-en-1-yl)-1-((R)-2-methyloxiran-2-yl)-1-oxopropan-2-yl)-2-((S)-2-(2-(4-hydroxypiperidin-1-yl)acetamido)propanamido)-3-(4-methoxyphenyl)propanamide] |  |
| 119 nM | 526 nM | 1300 µg/mL (≈ 2.35 mM) |  |  |  | COc1ccc(C[C@H](NC(=O)[C@H](C)NC(=O)CC2COC2)C(=O)N[C@@H](Cc2ccccc2)C(=O)[C@@]2(C)CO2)cc1 [Compound C-1179] |  |
|  |  | 2500 µg/mL (≈ 4.47 mM) | 541 nM | 1870 nM |  | COc1ccc(C[C@H](NC(=O)[C@H](C)NC(=O)CN2CCOCC2)C(=O)N[C@@H](CC2CCC2)C(=O)[C@@]2(C)CO2)cc1 [Compound C-1004, (S)-N-((S)-3-cyclobutyl-1-((R)-2-methyloxiran-2-yl)-1-oxopropan-2-yl)-3-(4-methoxyphenyl)-2-((S)-2-(2-morpholinoacetamido)propanamido)propanamide] |  |
|  |  | 985 µg/mL (≈ 1.69 mM) | 57.6 nM | 8970 nM |  | COc1ccc(C[C@H](NC(=O)[C@@H](C)NC(=O)[C@H]2CC[C@H](O)CC2)C(=O)N[C@@H](CC2=CCCCC2)C(=O)[C@@]2(C)CO2)cc1 [Compound C-1089, (1r,4R)-N-((R)-1-(((S)-1-(((S)-3-(cyclohex-1-en-1-yl)-1-((R)-2-methyloxiran-2-yl)-1-oxopropan-2-yl)amino)-3-(4-methoxyphenyl)-1-oxopropan-2-yl)amino)-1-oxopropan-2-yl)-4-hydroxycyclohexanecarboxamide] |  |
| 161 nM | 874 nM | 3030 µg/mL (≈ 5.08 mM) |  |  |  | COc1ccc(C[C@H](NC(=O)[C@@H](CO)NC(=O)CN2CCOCC2)C(=O)N[C@@H](Cc2ccccc2)C(=O)[C@@]2(C)CO2)cc1 [Compound C-1158] |  |
| 82.1 nM | 581 nM | 2670 µg/mL (≈ 4.72 mM) |  |  |  | COc1ccc(C[C@H](NC(=O)[C@H](C)NC(=O)[C@H]2CCCN2C)C(=O)N[C@@H](Cc2ccccc2)C(=O)[C@@]2(C)CO2)cc1 [Compound C-1164] |  |
|  |  | 11700 µg/mL (≈ 20.4 mM) | 1090 nM | 21700 nM |  | COc1ccc(C[C@H](NC(=O)[C@H](C)NC(=O)CN2CCOCC2)C(=O)N[C@@H](C[C@H]2CCCO2)C(=O)[C@@]2(C)CO2)cc1 [Compound C-1017, (S)-3-(4-methoxyphenyl)-N-((S)-1-((R)-2-methyloxhan-2-yl)-1-oxo-3-((R)-tetrahydrofuran-2-yl)propan-2-yl)-2-((S)-2-(2-morpholinoacetamido)propanamido)propanamide] |  |
|  |  | 230 µg/mL (≈ 0.414 mM) | 9.07 nM | 289 nM |  | COc1ccc(C[C@H](NC(=O)[C@H](C)NC(=O)CN2CCOCC2)C(=O)N[C@@H](CC2=CCCC2)C(=O)[C@H]2CO2)cc1 [Compound C-1038, (S)-N-((S)-3-(cyclopent-1-en-1-yl)-1-((R)-oxiran-2-yl)-1-oxopropan-2-yl)-3-(4-methoxyphenyl)-2-((S)-2-(2-morpholinoacetamido)propanamido)propanamide] |  |
|  |  | 979 µg/mL (≈ 1.76 mM) | 262 nM | 6630 nM |  | COc1ccc(C[C@H](NC(=O)[C@@H](C)NC(=O)[C@H]2CC[C@H](O)CC2)C(=O)N[C@@H](CC2CCC2)C(=O)[C@@]2(C)CO2)cc1 [Compound C-1090, (1r,4R)-N-((R)-1-(((S)-1-(((S)-3-cyclobutyl-1-((R)-2-methyloxiran-2-yl)-1-oxopropan-2-yl)amino)-3-(4-methoxyphenyl)-1-oxopropan-2-yl)amino)-1-oxopropan-2-yl)-4-hydroxycyclohexanecarboxamide] |  |
|  |  | 6440 µg/mL (≈ 11 mM) | 1160 nM | 45000 nM |  | COc1ccc(C[C@H](NC(=O)[C@H](C)NC(=O)CN2CCOCC2)C(=O)N[C@@H](CC2=CCOCC2)C(=O)[C@@]2(C)CO2)cc1 [Compound C-1020, (S)-N-((S)-3-(3,6-dihydro-2H-pyran-4-yl)-1-((R)-2-methyloxiran-2-yl)-1-oxopropan-2-yl)-3-(4-methoxyphenyl)-2-((S)-2-(2-morpholinoacetamido)propanamido)propanamide] |  |
|  |  | 5690 µg/mL (≈ 9.79 mM) | 49.5 nM | 3230 nM |  | C[C@@H](NC(=O)[C@H]1CC[C@H](O)CC1)C(=O)N[C@@H](Cc1ccc2[nH]cnc2c1)C(=O)N[C@@H](CC1CCCC1)C(=O)[C@@]1(C)CO1 [Compound C-1105, (1r,4R)-N-((R)-1-(((S)-3-(1H-benzo[d]imidazol-5-yl)-1-(((S)-3-cyclopentyl-1-((R)-2-methyloxiran-2-yl)-1-oxopropan-2-yl)amino)-1-oxopropan-2-yl)amino)-1-oxopropan-2-yl)-4-hydroxycyclohexanecarboxamide] |  |
|  |  | 8230 µg/mL (≈ 13.3 mM) | 50.6 nM | 2940 nM |  | COc1ccc([C@@H](O)[C@H](NC(=O)[C@H](CO)NC(=O)CN2CCOCC2)C(=O)N[C@@H](CC2=CCCCC2)C(=O)[C@@]2(C)CO2)cc1 [Compound C-1116, (2S,3R)-N-((S)-3-(Cyclohex-1-en-1-yl)-1-((R)-2-methyloxiran-2-yl)-1-oxopropan-2-yl)-3-hydroxy-2-((S)-3-hydroxy-2-(2-morpholinoacetamido)propanamido)-3-(4-methoxyphenyl)propanamide] |  |
|  |  | 1380 µg/mL (≈ 2.4 mM) | 12.4 nM | 423 nM |  | C[C@H](NC(=O)CN1CCOCC1)C(=O)N[C@@H](Cc1ccc2c(c1)OCO2)C(=O)N[C@@H](CC1CCCC1)C(=O)[C@H]1CO1 [Compound C-1060, (S)-3-(benzo[d][1,3]dioxol-5-yl)-N-((S)-3-cyclopentyl-1-((R)-oxiran-2-yl)-1-oxopropan-2-yl)-2-((S)-2-(2-morpholinoacetamido)propanamido)propanamide] |  |
|  |  | 3070 µg/mL (≈ 5.24 mM) | 29.3 nM | 2040 nM |  | COc1ccc(C[C@H](NC(=O)[C@@H](CO)NC(=O)[C@H]2CC[C@H](O)CC2)C(=O)N[C@@H](CC2=CCCC2)C(=O)[C@@]2(C)CO2)cc1 [Compound C-1092, (1r,4R)-N-((R)-1-(((S)-1-(((S)-3-(cyclopent-1-en-1-yl)-1-((R)-2-methyloxiran-2-yl)-1-oxopropan-2-yl)amino)-3-(4-methoxyphenyl)-1-oxopropan-2-yl)amino)-3-hydroxy-1-oxopropan-2-yl)-4-hydroxycyclohexanecarboxamide] |  |
|  |  | 1560 µg/mL (≈ 2.73 mM) | 101 nM | 1100 nM |  | Cc1ccc(C[C@H](NC(=O)[C@H](C)NC(=O)CN2CCOCC2)C(=O)N[C@@H](CC2CCCC2)C(=O)[C@@]2(C)CO2)cc1O [Compound C-1117, (S)-N-((S)-3-Cyclopentyl-1-((R)-2-methyloxiran-2-yl)-1-oxopropan-2-yl)-3-(3-hydroxy-4-methylphenyl)-2-((S)-2-(2-morpholinoacetamido)propanamido)propanamide] |  |
|  |  | 2150 µg/mL (≈ 3.79 mM) | 38.7 nM | 1960 nM |  | C[C@@H](NC(=O)[C@H]1CC[C@H](O)CC1)C(=O)N[C@@H](Cc1ccc(C#N)cc1)C(=O)N[C@@H](CC1CCCC1)C(=O)[C@@]1(C)CO1 [Compound C-1103, (1r,4R)-N-((R)-1-(((S)-3-(4-cyanophenyl)-1-(((S)-3-cyclopentyl-1-((R)-2-methyloxiran-2-yl)-1-oxopropan-2-yl)amino)-1-oxopropan-2-yl)amino)-1-oxopropan-2-yl)-4-hydroxycyclohexanecarboxamide] |  |
| 39.7 nM | 3390 nM |  |  |  | 4742.65 μg/mL | COc1ccc(C[C@H](NC(=O)[C@@H](C)NC(=O)[C@H]2CC[C@H](O)CC2)C(=O)N[C@@H](CC2CCCC2)C(=O)[C@@]2(C)CO2)cc1O [Compound C-1072, (1r,4R)-N-((R)-1-(((S)-1-(((S)-3-cyclopentyl-1-((R)-2-methyloxiran-2-yl)-1-oxopropan-2-yl)amino)-3-(3-hydroxy-4-methoxyphenyl)-1-oxopropan-2-yl)amino)-1-oxopropan-2-yl)-4-hydroxycyclohexanecarboxamide] |  |

| Structure (SMILES) | IC50 [1, 3] | IC50 [2, 4] | solubility (Solubility pH 7) | IC50 [1, 5] | IC50 [2, 6] | Solubility pH 7 (μg/mL) (Solubility pH 7; pH 7) | IC50 [2] |
| --- | --- | --- | --- | --- | --- | --- | --- |
| COc1ccc(C[C@H](NC(=O)[C@@H](C)NC(=O)[C@H]2CC[C@H](O)CC2)C(=O)N[C@@H](CC2CC=CC2)C(=O)[C@@]2(C)CO2)cc1 [Compound C-1074, (1r,4R)-N-((R)-1-(((S)-1-(((S)-3-(cyclopent-3-en-1-yl)-1-((R)-2-methyloxiran-2-yl)-1-oxopropan-2-yl)amino)-3-(4-methoxyphenyl)-1-oxopropan-2-yl)amino)-1-oxopropan-2-yl)-4-hydroxycyclohexanecarboxamide] |  |  | 1150 µg/mL (≈ 2.02 mM) | 26.2 nM |  |  | 778 nM |
